Measurements as given in US4716230A, “Certain bis(di-2 or 4-pyridyl-phosphino) alkanes #10 having anti-tumor properties” (Smithkline Beckman Corporation, priority 1986, dated 1987).
Where “and” joins values, the source holds several entries; their conditions need not be identical. Equal entries are not always repeated.

How the values were obtained:
[1] = maximally tolerated dose in mice, ip qD × 5 regimen; conditions: mouse, in vivo, B6D2F female mice
Experimental: (§1) 10^6 P388 leukemia cells are inoculated ip in B6D2F1 mice. Twenty-four hours later, if the tumor inoculum proves to be free of bacterial contamination (as determined by 24 hours incubation in thioglycollate broth), animals are randomized into groups of 6 and housed in shoebox cages. The compound to be evaluated is dissolved in a minimal volume of either N,N-dimethylacetamide (DMA) or 95% ethanol (depending upon solubility). An equal volume of saline is added; if the drug comes out of solution an equal volume of polyethoxylated castor oil is added and then saline qs to a concentration such that the desired dose is delivered in 0.5 ml. The final concentration of DMA, ethanol and polyethoxylated castor oil is […]. Dilutions for lower doses are made with saline so there is a decreasing proportion of organic solvents in the vehicle with decreasing dosage. These vehicles provide soluble formulations (or suspensions). Formulations are prepared immediately prior to injection. The compound is administered ip on Days 1 through 5 (i.e. treatment is initiated 24 hrs after tumor inoculation). Each experiment includes three groups of 6 animals as untreated controls and animals treated with a positive control, cisplatin, at two dose levels. Animals are weighed as a group on Days 1, 5 and 9 and average weight change (Δwt.) is used as a reflection of toxicity. Each experiment also includes an inoculum titration--groups of 8 mice inoculated ip with 10^5 to […] P388 leukemia cells. The titration is used to calculate cell kill achieved by treatment with drugs. Animals are monitored daily for mortality and experiments are terminated after 45 days. The endpoint is median survival time (MST) and increase in lifespan (ILS) which is the percentage of increase in MST relative to untreated controls. Untreated controls inoculated ip with 10^6 P388 leukemia cells generally survive for a median of 9 or 11 days. A drug is considered active if it produces ≥25 percent ILS.
^(a) maximally tolerated dose for B6D2F female mice on an ip qD

[2] = tested on: P388 leukemia; experiment: in vivo ip P388 lymphocytic leukemia mouse model (increase in lifespan); parameters: species or system mouse (B6D2F1); conditions: mice bearing ip P388 leukemia; ip Days 1-5; figures separated by slashes are from separate experiments; active if ≥25 percent ILS
From the text: P388 lymphocytic leukemia is currently the most widely used animal tumor model for screening for antitumor agents and for detailed evaluation of active compounds. This tumor system is widely accepted as an antitumor agent screening tool because it is sensitive to virtually all of the clinically active antineoplastic agents; quantitative and reproducible; amenable for large-scale screening; and predictive for activity in other animal tumor models.
as §1
^(b) maximum increase in lifespan produced in mice bearing ip P388
leukemia (figures separated by slashes indicate data generated in seperat

[3] = Struck et al., J. Med. Chem., 9, 414-416 (1966); cited from earlier work

For c1csc(P(CCP(c2cccs2)c2cccs2)c2cccs2)c1 [Compound 3, 1,2-Bis(di-2-thienylphosphino)ethane], which MTD [1] is on record?
The MTD was 16 mg/kg.

What about the “ILS (max) (maximum increase in lifespan)” value [2] of the same compound?
Its value is 60% and 55%.

Which results are given for c1cc(P(CCP(c2ccncc2)c2ccncc2)c2ccncc2)ccn1 [Compound 2, 1,2-Bis(di-4-pyridylphosphino)ethane]?
MTD [1]: 32 mg/kg; ILS (max) (maximum increase in lifespan) [2]: 35% and 37%

Which cytotoxic activity [3] does the source give for c1ccc(P(CCP(c2ccccc2)c2ccccc2)c2ccccc2)cc1 [1,2-bis(diphenylphosphino)ethane] here?
The cytotoxic activity was “cytotoxic activity”.

Which results are given for c1ccc(P(CCP(c2ccccn2)c2ccccn2)c2ccccn2)nc1 [Compound 1, 1,2-Bis(di-2-pyridylphosphino)ethane]?
MTD [1]: 16 mg/kg; ILS (max) (maximum increase in lifespan) [2]: 30% and 20%

Which results are given for c1coc(P(CCP(c2ccco2)c2ccco2)c2ccco2)c1 [Compound 4, 1,2-Bis(di-2-furylphosphino)ethane]?
MTD [1]: 64 mg/kg; ILS (max) (maximum increase in lifespan) [2]: 60% and 30% and 50%
